This is an account of results in US20230045421A1 (priority 2018, published 2023).

The first test deals with HBV rcDNA. Nature of the test: HepDE19 assay with bDNA quantitation of HBV rcDNA. It counts as cell-based, hepatitis B virus. The conditions noted are these: HepDE19 assay, inhibition of formation of rcDNA; read-out: DE-19bDNA EC50. In outline:
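HepDE19 cells (HepG2-derived, Tet-regulated HBV replication) were deprived of tetracycline and then exposed to compounds for 7 days at 37 °C in 0.5% DMSO, 8-point titration from 25 μM. rcDNA was quantified by bDNA and EC50/EC90 came from 4-parameter fits. CC50 was measured by CellTiter-Glo ATP content on replicate plates after 4 days.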
Turning to `CC(c1c[nH]c(=O)c2ccccc12)N(CC1CCOCC1)C(=O)Nc1ccc(F)c(Cl)c1` (single isomer, unassigned) [Compound 141, 3-(3-Chloro-4-fluorophenyl)-1-(1-(1-oxo-1,2-dihydroisoquinolin-4-yl)ethyl)-1-((tetrahydro-2H-pyran-4-yl)methyl)urea], the concentration giving a half-maximal response (EC50) (commonly the concentration at which the effect is half-maximal) worked out at 3.4 µM.

Take `CC(c1c[nH]c(=O)c2ccccc12)N(CC1CCOCC1)C(=O)Nc1ccc(F)c(Cl)c1` (single isomer, unassigned) [Compound 142, 3-(3-Chloro-4-fluorophenyl)-1-(1-(1-oxo-1,2-dihydroisoquinolin-4-yl)ethyl)-1-((tetrahydro-2H-pyran-4-yl)methyl)urea]: the EC50 stood at 0.04 µM.

Take `CC(C)CN(C(=O)Nc1ccc(F)c(Cl)c1)C(C)c1c[nH]c(=O)c2ccccc12` (single isomer, unassigned) [Compound 143, 3-(3-chloro-4-fluorophenyl)-1-isobutyl-1-(1-(1-oxo-1,2-dihydroisoquinolin-4-yl)ethyl)urea]: the EC50 was determined as 0.85 µM.

With `CC(C)CN(C(=O)Nc1ccc(F)c(Cl)c1)C(C)c1c[nH]c(=O)c2ccccc12` (single isomer, unassigned) [Compound 144, 3-(3-chloro-4-fluorophenyl)-1-isobutyl-1-(1-(1-oxo-1,2-dihydroisoquinolin-4-yl)ethyl)urea], the 50% effective concentration (EC50) was determined as 0.01 µM.

On to `CC(c1cnc(OCc2nc[nH]n2)c2ccccc12)N(C)C(=O)Nc1ccc(F)c(Cl)c1` (single isomer, unassigned) [Compound 145, 1-(1-(1-((1H-1,2,4-Triazol-3-yl)methoxy)isoquinolin-4-yl)ethyl)-3-(3-chloro-4-fluorophenyl)-1-methylurea], for which the EC50 came out at 4.2 µM.

Consider `CC(c1cnc(OCc2nc[nH]n2)c2ccccc12)N(C)C(=O)Nc1ccc(F)c(Cl)c1` (single isomer, unassigned) [Compound 146, 1-(1-(1-((1H-1,2,4-Triazol-3-yl)methoxy)isoquinolin-4-yl)ethyl)-3-(3-chloro-4-fluorophenyl)-1-methylurea], for which the concentration giving a half-maximal response (EC50) was 0.05 µM.

`CC(c1c[nH]c(=O)c2ccccc12)N(CCCCO)C(=O)Nc1ccc(F)c(Cl)c1` (single isomer, unassigned) [Compound 149, 3-(3-Chloro-4-fluorophenyl)-1-(4-hydroxybutyl)-1-(1-(1-oxo-1,2-dihydroisoquinolin-4-yl)ethyl)urea]: the half-maximal effective concentration (EC50) is 3.3 µM.

As to `CC(c1c[nH]c(=O)c2ccccc12)N(CCCCO)C(=O)Nc1ccc(F)c(Cl)c1` (single isomer, unassigned) [Compound 150, 3-(3-Chloro-4-fluorophenyl)-1-(4-hydroxybutyl)-1-(1-(1-oxo-1,2-dihydroisoquinolin-4-yl)ethyl)urea], the EC50 worked out at 0.01 µM.

For `CCN(C(=O)Nc1ccc(F)c(Cl)c1)C(C)c1c[nH]c(=O)c2cnccc12` (single isomer, unassigned) [Compound 151, 3-(3-Chloro-4-fluorophenyl)-1-ethyl-1-(1-(1-oxo-1,2-dihydro-2,7-naphthyridin-4-yl)ethyl)urea], the EC50 was determined as 2 µM.

For the compound `CCN(C(=O)Nc1ccc(F)c(Cl)c1)C(C)c1c[nH]c(=O)c2cnccc12` (single isomer, unassigned) [Compound 152, 3-(3-Chloro-4-fluorophenyl)-1-ethyl-1-(1-(1-oxo-1,2-dihydro-2,7-naphthyridin-4-yl)ethyl)urea], the EC50 came to 0.15 µM.

For the compound `CC(c1c[nH]c(=O)c2ccccc12)N(C[C@H]1CCCO1)C(=O)Nc1ccc(F)c(Cl)c1` (single isomer, unassigned) [Compound 155], the EC50 turned out to be 7.7 µM.

In the case of `CC(c1c[nH]c(=O)c2ccccc12)N(C[C@H]1CCCO1)C(=O)Nc1ccc(F)c(Cl)c1` (single isomer, unassigned) [Compound 156], the 50% effective concentration (EC50) amounted to 0.17 µM.

The same test, now with this note: Hepatitis B virus, HepDE19, HepDE19 assay, inhibition of formation of rcDNA; read-out: DE-19bDNA EC50.
On to `COc1ncc(C(C)N(CCCO)C(=O)Nc2ccc(F)c(Cl)c2)c2ccccc12` (single isomer, unassigned) [Compound 140, 3-(3-Chloro-4-fluorophenyl)-1-(3-hydroxypropyl)-1-(1-(1-methoxyisoquinolin-4-yl)ethyl)urea], for which the EC50 was 0.23 µM.
